From patent US7262340B2, “Gibberellin 2-oxidase” (Rothamsted Research Limited, priority 1998, dated 2007)

Tests used:
[1] = target: T1, PcGA2ox1 (Phaseolus coccineus, UniProt Q9XG83); assay: Incubation of recombinant GA 2-oxidase PcGA2ox1 (E. coli lysate) with 14C-labelled GA substrates; type: biochemical; conditions: for conversion of C20-GA substrate: 14C-labelled substrate, dioxygenase cofactors; for 2β-Hydroxy GA product / GA-catabolite Product: E. coli cell lysate, 14C-labelled GA substrate and cofactors, 2.5 h, HPLC-radiomonitoring
T1 construct: unnamed vector-encoded fusion partner (phagemid expression); made in house; host or cells: E. coli (crude cell lysate)
T1 sequence (Q9XG83 1-331): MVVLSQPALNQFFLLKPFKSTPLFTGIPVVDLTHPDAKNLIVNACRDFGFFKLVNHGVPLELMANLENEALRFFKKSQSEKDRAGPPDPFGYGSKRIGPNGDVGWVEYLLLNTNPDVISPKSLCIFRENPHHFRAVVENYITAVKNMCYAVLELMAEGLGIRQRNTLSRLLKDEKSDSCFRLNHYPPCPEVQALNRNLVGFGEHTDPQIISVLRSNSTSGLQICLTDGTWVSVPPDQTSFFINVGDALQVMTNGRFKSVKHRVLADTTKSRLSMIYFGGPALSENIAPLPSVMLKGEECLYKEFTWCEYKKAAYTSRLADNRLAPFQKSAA
Description: (§1) GA 2β-hydroxylase activity was determined by measuring the release of 3H2O from a 2β tritiated GA substrate, as described by Smith and MacMillan (Smith, V. A., and MacMillan, J. in J. Plant Growth Regulation 2 251-264 (1984)). The bacterial lysate (90 μl) was incubated with [1,2-^3H2]GA4 or [2,3-^3H2]GA9 (ca. 50000 dpm), in the presence of 4 mM 2-oxoglutarate, 0.5 mM Fe(II)SO4, 4 MM ascorbate, 4 mM DTT, 1 mg/ml catalase, 2 mg/ml BSA, in a final reaction volume of 100 μl. The mixture was incubated at 30° C. for 60 min. The tritiated GAs were removed by the addition of 1 ml of activated charcoal (5% w/v) and subsequent centrifugation for 5 min in a microfuge. Aliquots (0.5 ml) of the supernatant were mixed with 2 ml scintillation fluid and the radioactivity determined by scintillation counting.
(§2) In order to confirm the function of the cDNA expression products, bacterial lysate was incubated with [17-^14C]GAs in the presence of cofactors, as described above. After the incubation, acetic acid (10 μl) and water at pH 3 (140 μl) were added, and the mixture was centrifuged at 3,000 rpm for 10 min. The supernatant was analysed by HPLC with on-line radiomonitoring and products identified by GC-MS, as described previously (MacMillan et al Plant Physiol. 113 1369-1377 (1997)).
(§3) The catalytic properties of the recombinant proteins obtained by expressing the cDNAs from P. coccineus (PcGA2ox1) and A. thaliana (AtGA2ox1, AtGA2ox2 and AtGa2ox3) in E. coli were examined by incubating in the presence of dioxygenase cofactors with a range of ^14C-labelled GA substrates, consisting of the C19-GAs GA1, GA4, GA9 and GA20, and the C20-GAs, GA12 and GA15. This last compound was incubated in both its closed and open lactone forms. […] The mass spectnum of the product from GA15 is consistent with it being 2β-hydroxyGA15, although, because the authentic compound is not available for comparison, the identity of this product is tentative.
(§4) Values are % yield by HPLC-radiomonitoring of products after incubation of cell lysates from E. coli expressing the cDNA with ^14C-labelled GA substrate and cofactors for 2.5 h. Products and substrate were separated by HPLC and products identified by GC-MS. Where combined yield of products <100%, the remainder is unconverted substrate.

[2] = target: T2, AtGA2ox2 (Arabidopsis thaliana, UniProt Q9XFR9); assay: Incubation of recombinant GA 2-oxidase AtGA2ox2 (E. coli lysate) with 14C-labelled GA substrates; type: biochemical; conditions: for conversion of C20-GA substrate: 14C-labelled substrate, dioxygenase cofactors; for GA-catabolite Product / 2β-Hydroxy GA product: E. coli cell lysate, 14C-labelled GA substrate and cofactors, 2.5 h, HPLC-radiomonitoring
T2 construct: made in house; host or cells: E. coli (crude cell lysate)
T2 sequence (Q9XFR9 1-341): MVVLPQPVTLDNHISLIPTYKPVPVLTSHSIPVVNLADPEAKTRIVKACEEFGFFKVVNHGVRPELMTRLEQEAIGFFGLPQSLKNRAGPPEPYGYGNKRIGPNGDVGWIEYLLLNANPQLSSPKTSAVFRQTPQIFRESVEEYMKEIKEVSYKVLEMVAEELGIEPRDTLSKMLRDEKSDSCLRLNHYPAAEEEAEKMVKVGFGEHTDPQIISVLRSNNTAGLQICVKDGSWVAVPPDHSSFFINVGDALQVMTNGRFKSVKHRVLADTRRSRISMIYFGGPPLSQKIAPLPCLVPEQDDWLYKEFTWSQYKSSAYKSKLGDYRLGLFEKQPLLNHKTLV
Description: as §1, §2, §3, §4

[3] = tested on: severely dwarfed 35S-PcGA2ox1 line; assay: Metabolism of C19-GAs in a severely dwarfed 35S-PcGA2ox1 line compared with wild-type plants (HPLC); type: in vivo, Arabidopsis; conditions: severely dwarfed line versus wild-type, on the basis of HPLC
From the text: Metabolism of C19-Gas was compared in a severely dwarfed […] line with that in wild-type plants. […] Therefore, this GA can be used, when required, to reverse the GA-deficiency resulting from overexpressing GA 2-oxidase genes.

[4] = target: T3, AtGA2ox1 (Arabidopsis thaliana, UniProt Q8LEA2); assay: Incubation of recombinant GA 2-oxidase AtGA2ox1 (E. coli lysate) with 14C-labelled GA substrates; type: biochemical; conditions: for 2β-Hydroxy GA product: E. coli cell lysate, 14C-labelled GA substrate and cofactors, 2.5 h, HPLC-radiomonitoring
T3 construct: made in house; host or cells: E. coli (crude cell lysate)
T3 sequence (Q8LEA2 1-329): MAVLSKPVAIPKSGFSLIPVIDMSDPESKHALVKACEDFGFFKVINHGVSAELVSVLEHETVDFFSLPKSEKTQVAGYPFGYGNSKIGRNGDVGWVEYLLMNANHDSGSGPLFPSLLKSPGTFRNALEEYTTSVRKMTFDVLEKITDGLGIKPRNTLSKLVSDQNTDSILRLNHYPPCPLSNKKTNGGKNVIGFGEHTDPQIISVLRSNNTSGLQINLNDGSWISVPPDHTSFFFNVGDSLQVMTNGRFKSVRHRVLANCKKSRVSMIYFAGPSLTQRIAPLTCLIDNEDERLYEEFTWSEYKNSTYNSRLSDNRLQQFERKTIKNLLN
Description: as §1, §2, §3, §4

[5] = target: T4, AtGA2ox3 (Arabidopsis thaliana, UniProt O64692); assay: Incubation of recombinant GA 2-oxidase AtGA2ox3 (E. coli lysate) with 14C-labelled GA substrates; type: biochemical; conditions: for 2β-Hydroxy GA product / GA-catabolite Product: E. coli cell lysate, 14C-labelled GA substrate and cofactors, 2.5 h, HPLC-radiomonitoring
T4 construct: made in house; host or cells: E. coli (crude cell lysate)
T4 sequence (O64692 1-335): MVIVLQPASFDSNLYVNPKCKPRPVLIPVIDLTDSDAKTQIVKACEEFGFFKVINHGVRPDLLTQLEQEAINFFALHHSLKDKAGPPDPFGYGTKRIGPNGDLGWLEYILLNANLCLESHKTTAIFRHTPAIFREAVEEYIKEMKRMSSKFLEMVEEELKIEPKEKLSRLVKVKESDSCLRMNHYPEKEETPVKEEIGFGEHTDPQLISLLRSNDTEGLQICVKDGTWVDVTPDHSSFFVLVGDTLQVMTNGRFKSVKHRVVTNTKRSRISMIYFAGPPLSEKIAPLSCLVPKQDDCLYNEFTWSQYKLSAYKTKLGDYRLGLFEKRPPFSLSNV
Description: as §1, §2, §3, §4

[6] = tested on: T3 and T24 (AtGA2ox1 and AtGA2ox2) transcript; assay: Northern blot of GA 2-oxidase genes T3 and T24 after GA3 treatment of GA-deficient mutant; type: in vivo, Arabidopsis; conditions: immature flower buds and pedicels of GA-deficient mutant gal-2, after treatment
[7] = tested on: 35S-PcGA2ox1 transgenic Arabidopsis lines; assay: GA3 treatment of Arabidopsis transformants overexpressing P. coccineus GA 2-oxidase; type: in vivo
Description: The transformation of Arabidopsis plants with P. coccineus GA 2-oxidase cDNA under the control of the CaMV ^35S promoter yielded the following results.
Five Arabidopsis lines that are homozygous for the 35S-PcGA2ox1 transgene were obtained. […] No flower buds were obtained when plants were grown in short photoperiods.

[8] = tested on: GA 2-oxidases; assay: Substrate test with recombinant enzyme (GA 2-oxidases, enzyme not specified); type: biochemical
[9] = tested on: 2-oxoglutarate-dependent dioxygenases; conditions: pea seeds; cited from earlier work
[10] = 14C-labelled substrate, dioxygenase cofactors

Row | Compound | conversion of C20-GA substrate [1] | conversion of C20-GA substrate [2] | 2β-Hydroxy GA product [1] [% yield] | conversion to 2-oxidised products / metabolism by the dwarf line [3] | 2β-Hydroxy GA product [4] [% yield] | 2β-Hydroxy GA product [5] [% yield] | 2β-Hydroxy GA product [2] [% yield] | also measured
1 | C=C1C[C@]23C[C@H]1CC[C@H]2[C@@]12CCC[C@@](C)(C(=O)OC1)[C@H]2[C@@H]3C(=O)O [GA15] | converted to a single product | converted to a single product | – | – | – | – | – | –
2 | C=C1C[C@]23C[C@H]1CC[C@H]2[C@@]12CCC[C@@](C)(C(=O)O1)[C@H]2[C@@H]3C(=O)O [GA9] | – | – | 87 | to a much greater extent than did the wild-type | 91 | 100 | – | GA-catabolite Product [1]: 13 % yield; activity for 2β-hydroxylation of GA9, dependence on pH ([1]; between pH 6.5 and 8): varied little; GA-catabolite Product [2]: 100 % yield; activity for 2β-hydroxylation of GA9, dependence on pH ([2]; between pH 6.5 and 8): varied little; pH at which activity for 2β-hydroxylation of GA9 peaked [4]: 7; activity for 2β-hydroxylation of GA9 ([4]; pH ≦5.9 and ≧8.1): no detectable activity; activity for 2β-hydroxylation of GA9, dependence on pH ([5]; between pH 6.5 and 8): varied little
3 | C=C1C[C@]23C[C@@]1(O)CC[C@H]2[C@@]12C=C[C@H](O)[C@@](C)(C(=O)O1)[C@H]2[C@@H]3C(=O)O [GA3] | – | – | – | did not metabolise | – | – | – | transcript abundance for both T3 and T24 [6]: increased; effect on bolting and flowering of the transgenic lines ([7]; 10 μM GA3, homozygous 35S-PcGA2ox1 lines): enabled them to bolt and produce normal flowers that set viable seed; response of dwarf transformants to treatment ([7]; Arabidopsis transformants, CaMV 35S promoter, concentration not given): increased stem elongation and normal flower development; substrate for the GA 2-oxidases [8]: not a substrate
4 | C=C1C[C@]23C[C@@]1(O)CC[C@H]2[C@@]12CCC[C@@](C)(C(=O)O1)[C@H]2[C@@H]3C(=O)O [GA20] | – | – | 86 | to a much greater extent than did the wild-type | 50 | 25 | 100 | –
5 | C=C1C[C@]23C[C@H]1CC[C@H]2[C@]1(C)CCC[C@@](C)(C(=O)O)[C@H]1[C@@H]3C(=O)O [GA12] | No conversion | No conversion | – | – | – | – | – | conversion of C20-GA substrate [4, 10]: No conversion; conversion of C20-GA substrate [5, 10]: No conversion
6 | C=C1C[C@]23C[C@H]1CC[C@H]2[C@]1(CO)CCC[C@@](C)(C(=O)O)[C@H]1[C@@H]3C(=O)O [GA15 open lactone, 20-hydroxyGA12] | no conversion | converted to the same product by AtGAox2, but less efficiently than was the lactone form | – | – | – | – | – | –
7 | C=C1C[C@]23C[C@H]1CC[C@H]2[C@@]12CC[C@H](O)[C@@](C)(C(=O)O1)[C@H]2[C@@H]3C(=O)O [GA4] | – | – | 83 | to a much greater extent than did the wild-type | 25 | 86 | 77 | GA-catabolite Product [1]: 17 % yield; GA-catabolite Product [2]: 23 % yield; GA-catabolite Product [5]: 14 % yield
8 | prohexadione-calcium | – | – | – | – | – | – | – | conversion of GA29 to GA29-catabolite [9]: inhibited
9 | C=C1C[C@]23C[C@@]1(O)CC[C@H]2[C@@]12CC[C@H](O)[C@@](C)(C(=O)O1)[C@H]2[C@@H]3C(=O)O [GA1] | – | – | 100 | to a much greater extent than did the wild-type | 41 | 100 | 100 | GA-catabolite Product [5]: Trace
